# Assay results taken from ChEMBL document CHEMBL1165917, “Synthesis and NMDA receptor affinity of fluorinated dioxadrol analogues” (Bioorg Med Chem, 2010).
# Legend:
# [1] = Displacement of [3H]-(+)-MK801 from PCP binding site of NMDA receptor from pig brain cortex after 150 mins by scintillation counting; set-up: species or system Sus scrofa
# [2] = target: Sigma non-opioid intracellular receptor 1 (Cavia porcellus, UniProt Q60492); test: Displacement of [3H](+)-pentazocine from sigma1 opioid receptor from guinea pig brain cortex after 150 mins by scintillation counting
# Sequence of Sigma non-opioid intracellular receptor 1 (Q60492 whole entry): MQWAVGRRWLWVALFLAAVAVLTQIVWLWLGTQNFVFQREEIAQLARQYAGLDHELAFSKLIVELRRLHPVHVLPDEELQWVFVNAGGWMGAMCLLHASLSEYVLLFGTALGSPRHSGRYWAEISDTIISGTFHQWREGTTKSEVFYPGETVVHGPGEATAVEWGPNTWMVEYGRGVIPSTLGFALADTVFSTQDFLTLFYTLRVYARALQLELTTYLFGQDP
# [3] = Displacement of [3H]ditolylguanidine from sigma2 opioid receptor from rat brain cortex after 150 mins by scintillation counting
# Sus scrofa = species: Sus scrofa; settings: at 1 µM
# Description: Displacement of [3H]-(+)-MK801 from PCP binding site of NMDA receptor from pig brain cortex at 1 uM after 150 mins by scintillation counting
# [4] = target: Sigma non-opioid intracellular receptor 1 (Cavia porcellus) (UniProt Q60492); settings: at 1 µM
# Sequence of Sigma non-opioid intracellular receptor 1 (Cavia porcellus) (Q60492 whole entry): as above
# Description: Displacement of [3H](+)-pentazocine from sigma1 opioid receptor from guinea pig brain cortex at 1 uM after 150 mins by scintillation counting
# Rattus norvegicus = species: Rattus norvegicus; settings: at 1 µM
smiles,measurement,setting,value
FC1(F)CCNC(C2COC(c3ccccc3)(c3ccccc3)O2)C1 (racemic),Ki,[1],81 nM
same,Ki,[2],810 nM
same,Ki,[3],137 nM
same,inhibition,Sus scrofa,58%
same,inhibition,[4],0%
same,inhibition,Rattus norvegicus,17%
OC1CCNC(C2COC(c3ccccc3)(c3ccccc3)O2)C1 (racemic),Ki,[1],44 nM
same,Ki,[2],971 nM
same,inhibition,Rattus norvegicus,13%
O=C1CCNC(C2COC(c3ccccc3)(c3ccccc3)O2)C1 (racemic),Ki,[1],470 nM
same,inhibition,[4],0%
FC1CCNC(C2COC(c3ccccc3)(c3ccccc3)O2)C1 (racemic; form 1),inhibition,Sus scrofa,0%
same,inhibition,[4],5%
same,inhibition,Rattus norvegicus,19%
FC1CCNC(C2COC(c3ccccc3)(c3ccccc3)O2)C1 (racemic; form 2) [listing 1 of 2 here],Ki,[1],27 nM
FC1CCNC(C2COC(c3ccccc3)(c3ccccc3)O2)C1 (racemic; form 2) [listing 2 of 2 here],inhibition,[4],5%
same,inhibition,Rattus norvegicus,19%
CC12CC3CC(C)(C1)CC(N)(C3)C2 [MEMANTINE],Ki,[1],1200 nM
